Assay results reported in patent US9169254B2, “Spiroimidazolone derivative” (Chugai Seiyaku Kabushiki Kaisha, priority 2009, dated 2015).

target: T1, human PTH1 receptor (Homo sapiens, UniProt Q03431); assay: In vitro cAMP signal activity in HKRK-B7 cells (LLC-PK1 cells overexpressing the human PTH1 receptor); assay type: cell-based; settings: HKRK-B7 cells; compound at 1×10^−3 M; […]; 0.1 µM
T1 sequence (Q03431 27-593): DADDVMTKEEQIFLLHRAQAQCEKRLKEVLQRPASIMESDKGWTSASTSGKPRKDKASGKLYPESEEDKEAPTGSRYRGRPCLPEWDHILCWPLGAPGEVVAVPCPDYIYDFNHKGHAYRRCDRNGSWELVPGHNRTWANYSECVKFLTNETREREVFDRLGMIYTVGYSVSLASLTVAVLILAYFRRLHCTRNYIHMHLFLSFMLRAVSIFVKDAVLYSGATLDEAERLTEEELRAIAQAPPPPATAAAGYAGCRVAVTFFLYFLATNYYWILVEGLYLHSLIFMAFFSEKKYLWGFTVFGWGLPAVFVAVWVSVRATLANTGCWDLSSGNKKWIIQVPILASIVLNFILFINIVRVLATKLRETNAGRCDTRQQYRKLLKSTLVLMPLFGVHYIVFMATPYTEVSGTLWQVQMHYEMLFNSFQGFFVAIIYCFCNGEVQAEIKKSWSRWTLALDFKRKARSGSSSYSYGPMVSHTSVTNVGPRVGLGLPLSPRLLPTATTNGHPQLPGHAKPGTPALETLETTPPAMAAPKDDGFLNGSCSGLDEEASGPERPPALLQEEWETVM

| Structure (SMILES) | cAMP production activity (%) |
| --- | --- |
| O=C(Cn1ccc2c(/C=C/S(=O)(=O)N3CCC4(CC3)N=C(C3CCCCC3)NC4=O)cccc21)Nc1ccncc1 [Compound 736, 2-{4-[(E)-2-(2-Cyclohexyl-4-oxo-1,3,8-triaza-spiro[4.5]dec-1-ene-8-sulfonyl)-vinyl]-indol-1-yl}-N-pyridin-4-yl-acetamide] | 16% |

same assay, conditions: HKRK-B7 cells; compound at 1×10^−3 M; cAMP produced as percentage of that produced by hPTH(1-34) at 100 nM

| Structure (SMILES) | cAMP production activity (%) |
| --- | --- |
| Cc1cc(N2C(=O)CNC2=O)c(C)cc1CCS(=O)(=O)N1CCC2(CC1)N=C(C1CCC(C)CC1)NC2=O (stereo not drawn) [Compound 778, 3-(2,5-dimethyl-4-{2-[2-(4-methyl-cyclohexyl)-4-oxo-1,3,8-triaza-spiro[4.5]dec-1-ene-8-sulfonyl]-ethyl}-phenyl)-imidazolidine-2,4-dione] | 57% |
| CC(=O)Nc1ccc(CCS(=O)(=O)N2CCC3(CC2)N=C(C2CCC(CCCCF)CC2)NC3=O)c(C)c1 (stereo not drawn) [Compound 1296, N-[4-(2-{2-[4-(4-Fluoro-butyl)-cyclohexyl]-4-oxo-1,3,8-triaza-spiro[4.5]dec-1-ene-8-sulfonyl}-ethyl)-3-methyl-phenyl]-acetamide] | 64% |
| Cc1cc(C(=O)N(C)C)ccc1CCS(=O)(=O)N1CCC2(CC1)N=C(c1cccc(S(C)(=O)=O)c1)NC2=O [Compound 110, 4-{2-[2-(3-methanesulfonyl-phenyl)-4-oxo-1,3,8-triaza-spiro[4.5]dec-1-ene-8-sulfonyl]-ethyl}-3,N,N-trimethyl-benzamide] | 25% |
| Nc1cc(C(F)(F)F)c(/C=C/S(=O)(=O)N2CCC3(CC2)N=C(C2CCCCC2)NC3=O)c(C(F)(F)F)c1 [Compound 491, 8-[(E)-2-(4-amino-2,6-bis-trifluoromethyl-phenyl)-ethenesulfonyl]-2-cyclohexyl-1,3,8-triaza-spiro[4.5]dec-1-en-4-one] | 58% |
| Cc1cc2c(ccn2C[C@@H](O)CO)c(C)c1/C=C/S(=O)(=O)N1CCC2(CC1)N=C(C1CCC(CCC(F)(F)F)CC1)NC2=O (stereo partly drawn) [Compound 630, 8-{(E)-2-[1-((R)-2,3-dihydroxy-propyl)-4,6-dimethyl-1H-indol-5-yl]-ethenesulfonyl}-2-[4-(3,3,3-trifluoro-propyl)-cyclohexyl]-1,3,8-triaza-spiro[4.5]dec-1-en-4-one] | 4.1% |
| Cc1cc(C(=O)N2CCN(C)CC2)cc(C)c1CCS(=O)(=O)N1CCC2(CC1)N=C(C1CCC(CCC(F)(F)F)CC1)NC2=O (stereo not drawn) [Compound 995, 8-{2-[2,6-Dimethyl-4-(4-methyl-piperazine-1-carbonyl)-phenyl]-ethanesulfonyl}-2-[4-(3,3,3-trifluoro-propyl)-cyclohexyl]-1,3,8-triaza-spiro[4.5]dec-1-en-4-one] | 98% |
| Cc1cc(C(=O)N2CCC(C)(O)CC2)cc(C)c1/C=C/S(=O)(=O)N1CCC2(CC1)N=C(c1ccc(Cl)c(OCCCC(F)(F)F)c1)NC2=O [Compound 1227, 2-[4-chloro-3-(4,4,4-trifluoro-butoxy)-phenyl]-8-{(E)-2-[4-(4-hydroxy-4-methyl-piperidine-1-carbonyl)-2,6-dimethyl-phenyl]-ethenesulfonyl}-1,3,8-triaza-spiro[4.5]dec-1-en-4-one] | 77% |
| O=C1NC(C2CCC(F)(F)CC2)=NC12CCN(S(=O)(=O)/C=C/c1cccc3c1ccn3C[C@H](O)CO)CC2 [Compound 241, 2-(4,4-difluoro-cyclohexyl)-8-{(E)-2-[1-((S)-2,3-dihydroxy-propyl)-1H-indol-4-yl]-ethenesulfonyl}-1,3,8-triaza-spiro[4.5]dec-1-en-4-one] | 44% |
| CC(=O)NCc1cc(C)c(CCS(=O)(=O)N2CCC3(CC2)N=C(C2CCC(C)CC2)NC3=O)c(C)c1 (stereo not drawn) [Compound 773, N-(3,5-dimethyl-4-{2-[2-(4-methyl-cyclohexyl)-4-oxo-1,3,8-triaza-spiro[4.5]dec-1-ene-8-sulfonyl]-ethyl}-benzyl)-acetamide] | 86% |
| Cc1cc(OCCC(O)CO)cc(C)c1CCS(=O)(=O)N1CCC2(CC1)N=C(c1ccc(F)c(C(F)(F)F)c1)NC2=O (stereo not drawn) [Compound 801, 8-{2-[4-(3,4-dihydroxy-butoxy)-2,6-dimethyl-phenyl]-ethanesulfonyl}-2-(4-fluoro-3-trifluoromethyl-phenyl)-1,3,8-triaza-spiro[4.5]dec-1-en-4-one] | 103% |
| Cc1ccccc1C(=O)CS(=O)(=O)N1CCC2(CC1)N=C(C1CCCCC1)NC2=O [Compound 1375, 2-Cyclohexyl-8-(2-oxo-2-o-tolyl-ethanesulfonyl)-1,3,8-triaza-spiro[4.5]dec-1-en-4-one] | 23% |
| Cc1cc(C(=O)N2CCC(O)(CF)CC2)cc(C)c1CCS(=O)(=O)N1CCC2(CC1)N=C(C1CCC(C)CC1)NC2=O (stereo not drawn) [Compound 1383, 8-{2-[4-(4-fluoromethyl-4-hydroxy-piperidine-1-carbonyl)-2,6-dimethyl-phenyl]-ethanesulfonyl}-2-(4-methyl-cyclohexyl)-1,3,8-triaza-spiro[4.5]dec-1-en-4-one] | 96% |
| Cc1cc(S(=O)(=O)NCCN2CCOCC2)ccc1/C=C/S(=O)(=O)N1CCC2(CC1)N=C(c1cccc(C(F)(F)F)c1)NC2=O [Compound 218, 3-methyl-N-(2-morpholin-4-yl-ethyl)-4-{(E)-2-[4-oxo-2-(3-trifluoromethyl-phenyl)-1,3,8-triaza-spiro[4.5]dec-1-ene-8-sulfonyl]-vinyl}-benzenesulfonamide] | 72% |
| O=C(OCc1ccccc1)N1CCCC(C2=NC3(CCN(S(=O)(=O)CCc4cccc5ccccc45)CC3)C(=O)N2)C1 (stereo not drawn) [Compound 464, 3-[8-(2-naphthalen-1-yl-ethanesulfonyl)-4-oxo-1,3,8-triaza-spiro[4.5]dec-1-en-2-yl]-piperidine-1-carboxylic acid benzyl ester] | 54% |
| Cc1cc(C(=O)N(C)C)ccc1CCS(=O)(=O)N1CCC2(CC1)N=C(c1ccc(OC(F)(F)F)cc1)NC2=O [Compound 106, 3,N,N-trimethyl-4-{2-[4-oxo-2-(4-trifluoromethoxy-phenyl)-1,3,8-triaza-spiro[4.5]dec-1-ene-8-sulfonyl]-ethyl}-benzamide] | 94% |
| Cc1cc(N(C)C(N)=O)cc(C)c1/C=C/[S@TB3](=O)(=O)N1CCC2(CC1)N=C(CCCCCCC/C=C/c1ccccc1)NC2=O [Compound 1121, 1-(3,5-dimethyl-4-{(E)-2-[4-oxo-2-((E)-9-phenyl-non-8-enyl)-1,3,8-triaza-spiro[4.5]dec-1-ene-8-sulfonyl]-vinyl}-phenyl)-1-methyl-urea] | 118% |
| O=C1NC(c2ccc(Cl)cc2Cl)=NC12CCN(S(=O)(=O)c1cccc3cccnc13)CC2 [Compound 48, 2-(2,4-Dichloro-phenyl)-8-(quinoline-8-sulfonyl)-1,3,8-triaza-spiro[4.5]dec-1-en-4-one] | 25% |
| Cc1cc(OC[C@H](O)CO)cc(C)c1/C=C/S(=O)(=O)N1CCC2(CC1)N=C(C1CCC(CCC(F)(F)F)CC1)NC2=O (stereo partly drawn) [Compound 697, 8-{(E)-2-[4-((R)-2,3-Dihydroxy-propoxy)-2,6-dimethyl-phenyl]-ethenesulfonyl}-2-[4-(3,3,3-trifluoro-propyl)-cyclohexyl]-1,3,8-triaza-spiro[4.5]dec-1-en-4-one] | 60% |
| Cc1cc(N(C)C(N)=O)c(Cl)c(C)c1CCS(=O)(=O)N1CCC2(CC1)N=C(C1CCC(CC(F)(F)F)CC1)NC2=O (stereo not drawn) [Compound 937, 1-[2-chloro-3,5-dimethyl-4-(2-{4-oxo-2-[4-(2,2,2-trifluoro-ethyl)-cyclohexyl]-1,3,8-triaza-spiro[4.5]dec-1-ene-8-sulfonyl}-ethyl)-phenyl]-1-methyl-urea] | 120% |
| Cc1cc(C(=O)N(C)C)ccc1CCS(=O)(=O)N1CCC2(CC1)N=C(c1ccc(F)c(C(F)(F)F)c1)NC2=O [Compound 107, 4-{2-[2-(4-fluoro-3-trifluoromethyl-phenyl)-4-oxo-1,3,8-triaza-spiro[4.5]dec-1-ene-8-sulfonyl]-ethyl}-3,N,N-trimethyl-benzamide] | 110% |
| Cc1cc(C(=O)N2CCC(C)(O)CC2)cc(C)c1/C=C/S(=O)(=O)N1CCC2(CC1)N=C(c1ccc(C(F)(F)F)c(Cl)c1)NC2=O [Compound 1188, 2-(3-chloro-4-trifluoromethyl-phenyl)-8-{(E)-2-[4-(4-hydroxy-4-methyl-piperidine-1-carbonyl)-2,6-dimethyl-phenyl]-ethenesulfonyl}-1,3,8-triaza-spiro[4.5]dec-1-en-4-one] | 99% |
| Cc1cc(N(C)C(N)=O)cc(C)c1CCS(=O)(=O)N1CCC2(CC1)N=C(c1cccc(OCCCC(F)(F)F)c1)NC2=O [Compound 1338, 1-[3,5-dimethyl-4-(2-{4-oxo-2-[3-(4,4,4-trifluoro-butoxy)-phenyl]-1,3,8-triaza-spiro[4.5]dec-1-ene-8-sulfonyl}-ethyl)-phenyl]-1-methyl-urea] | 84% |
| COc1cccc(/C=C/S(=O)(=O)N2CCC3(CC2)N=C(C2CCCCC2)NC3=O)c1 [Compound 180, 2-cyclohexyl-8-[(E)-2-(3-methoxy-phenyl)-ethenesulfonyl]-1,3,8-triaza-spiro[4.5]dec-1-en-4-one] | 60% |
